How the values were obtained:
[1] = Pharmacokinetics of four compounds in plasma after oral administration of GSBXD and its plus-minus prescriptions in normal rats (LC-MS/MS); format: in vivo; conditions: Wistar, rat
Procedure: Plasma samples (200 μL) and IS solution (50 μL, 1215 ng/mL for diphenhydramine, 476 ng/mL for chloromycetin) were added in an Eppendorf tube, and this mixture was extracted with methanol (550 μL) by shaking on a vortex-mixer for 2 min, and centrifuged for 10 min at 13,000 rpm. The contents were evaporated to dryness on a rotary evaporator at 37 °C. The residue was reconstituted in methanol (100 μL) and centrifuged (13,000 rpm for 10 min). The supernatant was transferred to an auto sample vail and an aliquot of 5 μL was injected onto the UPLC-MS/MS system for analysis.
The developed and validated method was applied to the pharmacokinetic evaluation of the four compounds after oral administration of different fractions to normal rats (Figure 3).
Raw materials of Glycyrrhiza uralensis Fisch (Gancao), Paeonia lactiflora Pall (Baishao), Pinellia ternata Breit (Banxia) in a weight ratio of 10:15:9 (50, 75 and 45 g) were crushed into small pieces. The mixture was refluxed with 1.7 L water for 1 h and with 1.36 L water for 1 h. The filtrates were combined and concentrated below 70 °C to obtain a certain volume at the ratio of 1.5:1 (w/w, weight of all constituting herbs and the extract filtrates) under vacuum. Powder of Euphorbia kansui T. N. Liou ex T. P. Wang. […] The same method was used to prepare GSBXD minus Gancao (GSBXD-GC); GSBXD minus Gansui (GSBXD-GS); GSBXD minus Gancao and Gansui (GSBXD-GG); the extract of Gancao and Gansui (GG) and the extract of Gancao (GC). The extracts contained 19.21, 18.73, 46.53, 15.82 μg/mL of compounds 1–4 in GSBXD; 0, 0, 51.03, 17.88 μg/mL of compounds 1–4 in GSBXD-GC; 19.21, 18.73, 46.53, 15.82 μg/mL of compounds 1–4 in GSBXD-GS; 0, 0, 51.03, 17.88 μg/mL of compounds 1–4 in GSBXD-GG; 20.03, 17.09, 0, 0 μg/mL of compounds 1–4 in GG, 20.03, 17.09, 0, 0 μg/mL of compounds 1–4 in GC.
For pharmacokinetic studies, Wistar rats were divided into ten groups (n = 6 per group). Rats in the normal and model GSBXD groups were administered GSBXD at a dose of 15 mL/kg intragastrically. In the normal and model GSBXD-GC groups, GSBXD-GC (12 mL/kg) was administrated. In the normal and model GSBXD-GS groups, GSBXD-GS (15 mL/kg) was administrated. In the normal and model GSBXD-GC-GS groups, GSBXD-GC-GS (12 mL/kg) was administrated. In the normal and model GG groups, GG (7.5 mL/kg) was administrated. Blood samples were collected at specific time points before (0 min) and after oral administration (5, 10, 20, 40, 60, 120, 240, 360, 480, 600 and 1440 min). A total of 720 blood samples were collected. All the blood samples were immediately centrifuged at 2500 rpm for 10 min to obtain plasma, which was labeled and frozen at −80 °C until analysis. Blank plasma was obtained from the rats without oral administration and was used to investigate the assay development and validation.
To determine the pharmacokinetic parameters of compounds 1–4 in different groups, concentration–time data were analyzed by DAS 3.2 software (Mathematical Pharmacology Professional Committee of China, Shanghai, China, 2011). Data were expressed as the mean […] standard deviation (S.D.) with triplicate measurements. The identification of significances between different groups was carried out with Student’s t-test. A P value < 0.05 was considered statistically significant.

[2] = Stability of the four compounds in rat plasma QC samples (freeze-thaw, storage at −80 °C, autosampler); format: physicochemical; conditions: for Stability, Autosampler for 24 h, Accuracy: processed rat plasma, auto-sampler 4 °C for 24 h; for Stability, Freeze-thaw cycles, Accuracy / Stability, At −80 °C for a Month, Accuracy: rat plasma; for Stability, Freeze-thaw cycles, Accuracy: three freeze-thaw cycles −80 °C to 20 °C
Procedure: Stability of the four analytes during the sample storing and processing procedures was fully evaluated by analysis of QC samples.
Three QC samples (five samples for each) were tested for pre-treatment, post-treatment, three freeze-thaw cycles and long-term stabilities. Pre-treatment stability was assessed by exposing QC samples at room temperature for 4 h. Post-treatment stability was evaluated by placing QC samples in the auto-sampler at 4 °C for 24 h. For freeze–thaw cycle stability assessment, QC samples were repeatedly frozen and thawed for three cycles from −80 °C to 20 °C. […]

[3] = 7.5 mL/kg, group GG (extract of Gancao and Gansui), 7.5 mL/kg oral, normal rats, n = 6, mean ± S.D.
[4] = 15 mL/kg, group GSBXD, 15 mL/kg intragastrically, normal rats, n = 6, mean ± S.D.
[5] = 15 mL/kg, group GSBXD-GS (GSBXD minus Gansui), 15 mL/kg oral, normal rats, n = 6, mean ± S.D.
[6] = group GC (extract of Gancao), oral, normal rats, n = 6, mean ± S.D.
[7] = high QC concentration (1.23 × 10^3, 1.11 × 10^3, 1.14 × 10^3, 1.42 × 10^3 ng/mL for 1–4)
[8] = low QC concentration (1.91 × 10, 4.32, 1.78 × 10, 1.11 × 10 ng/mL for 1–4)
[9] = middle QC concentration (3.09 × 10^2, 1.38 × 10^2, 1.43 × 10^2, 1.77 × 10^2 ng/mL for 1–4)
[10] = 12 mL/kg, group GSBXD-GC (GSBXD minus Gancao), 12 mL/kg oral, normal rats, n = 6, mean ± S.D.
[11] = 12 mL/kg, group GSBXD-GG (GSBXD minus Gancao and Gansui), 12 mL/kg oral, normal rats, n = 6, mean ± S.D.

Structure (SMILES)	AUC(0-t) [1, 3] [ng·h/mL]	Cmax [1, 3] [ng/mL]	Tmax [1, 3] [min]	AUC(0-t) [1, 4] [ng·h/mL]	Cmax [1, 4] [ng/mL]	Tmax [1, 4] [min]	half-life [1, 4] [min]	AUC(0-t) [1, 5] [ng·h/mL]	Cmax [1, 5] [ng/mL]	Tmax [1, 5] [min]	half-life [1, 5] [min]	Stability, Autosampler for 24 h, Accuracy [2, 7] [%]	Stability, Autosampler for 24 h, Accuracy [2, 8] [%]	Stability, Autosampler for 24 h, Accuracy [2, 9] [%]	Stability, Freeze-thaw cycles, Accuracy [2, 7] [%]	Stability, Freeze-thaw cycles, Accuracy [2, 8] [%]	Stability, Freeze-thaw cycles, Accuracy [2, 9] [%]	Stability, At −80 °C for a Month, Accuracy [2, 7] [%]	Stability, At −80 °C for a Month, Accuracy [2, 8] [%]	Stability, At −80 °C for a Month, Accuracy [2, 9] [%]	further results
CC1(C)[C@@H](O[C@H]2O[C@H](C(=O)O)[C@@H](O)[C@H](O)[C@H]2O[C@@H]2O[C@H](C(=O)O)[C@@H](O)[C@H](O)[C@H]2O)CC[C@]2(C)[C@H]3C(=O)C=C4[C@@H]5C[C@@](C)(C(=O)O)CC[C@]5(C)CC[C@@]4(C)[C@]3(C)CC[C@@H]12 [Compound 1, glycyrrhizinic acid]	788 ± 110	364 ± 46.2	38.4 ± 20.4	2630 ± 532	503 ± 199	19.8	356 ± 160	1280 ± 393	214 ± 55.4	100 ± 7.2	694 ± 344	87.36	93.94	92.23	94.33	98.83	91.02	98.18	89.99	91.37	half-life [1, 3]: 557 ± 282 min; AUC(0-t) [1, 6]: 486 ± 136 ng·h/mL; Cmax [1, 6]: 147 ± 19.9 ng/mL; Tmax [1, 6]: 21.6 ± 9.6 min; half-life [1, 6]: 47.4 ± 23.4 min
O=C1C[C@@H](c2ccc(O[C@@H]3O[C@H](CO)[C@@H](O)[C@H](O)[C@H]3O)cc2)Oc2cc(O)ccc21 [Compound 2, liquiritin]	788 ± 110	200 ± 42.4	19.2 ± 16.2	794 ± 142	193 ± 84.5	23.4 ± 8.4	422 ± 179	421 ± 222	98.9 ± 26.8	10.2 ± 6.6	410 ± 187	97.11	88.92	97.49	95.35		89.99	96.71	91.03	99.99	half-life [1, 3]: 772 ± 286 min; AUC(0-t) [1, 6]: 797 ± 174 ng·h/mL; Cmax [1, 6]: 139 ± 33.5 ng/mL; Tmax [1, 6]: 30 ± 10.8 min; half-life [1, 6]: 316 ± 116 min
C[C@@]12C[C@@]3(O)O[C@@H](O1)[C@]1(COC(=O)c4ccccc4)[C@H]3C[C@@]12O[C@@H]1O[C@H](CO)[C@@H](O)[C@H](O)[C@H]1O [Compound 3, paeoniflorin]				825 ± 96	82.8 ± 15.7	48.6 ± 20.4	753 ± 448	910 ± 476	101 ± 18	79.8 ± 22.2	474 ± 70.2	104.13	98.03	91.28	91.57	87.63	92.10	89.55	87.54	95.32	Tmax ([1]; 12 mL/kg): 30 ± 16.8 min; AUC(0-t) [1, 10]: 362 ± 40.4 ng·h/mL; Cmax [1, 10]: 74.1 ± 26 ng/mL; Tmax [1, 10]: 18.6 ± 4.2 min; half-life [1, 10]: 962 ± 157 min; AUC(0-t) [1, 11]: 659 ± 411 ng·h/mL; Cmax [1, 11]: 150 ± 24.5 ng/mL; half-life [1, 11]: 1280 ± 531 min
CC12CC(O)C3CC1(OC1OC(CO)C(O)C(O)C1O)C3(COC(=O)c1ccccc1)C(=O)O2 (stereo not drawn) [Compound 4, albiflorin]				1110 ± 346	255 ± 98	19.8 ± 10.8	484 ± 86.4	514 ± 271	142 ± 39.8	16.8 ± 8.4	544 ± 52.2	99.91	97.15	91.22	98.33	93.49	102.34	88.48	101.5	79.13	AUC(0-t) [1, 10]: 619 ± 130 ng·h/mL; Cmax [1, 10]: 88.5 ± 18.3 ng/mL; Tmax [1, 10]: 48.6 ± 37.2 min; half-life [1, 10]: 464 ± 44.4 min; AUC(0-t) [1, 11]: 785 ± 158 ng·h/mL; Cmax [1, 11]: 113 ± 25.8 ng/mL; Tmax [1, 11]: 33.6 ± 16.2 min; half-life [1, 11]: 524 ± 58.8 min

From publication PMC6272428 (Molecules, 2015)
